Assays:
MDA-MB-231 = test: Cytotoxicity against human MDA-MB-231 cells assessed as reduction in cell metabolic activity after 72 hrs by MTS assay; assay type: functional, cell-based; settings: MDA-MB-231, 72 h
[1] = Cytotoxicity against human HMLE cells assessed as reduction in cell metabolic activity after 72 hrs by MTS assay; assay type: ADME, cell-based

CN[C@@H]1C[C@H]2O[C@@](C)([C@@H]1OC)n1c3cc(O)ccc3c3c4c(c5c6ccccc6n2c5c31)C(=O)NC4
IC50 (MDA-MB-231): 3.4 nM | IC50 [1]: 58.7 nM

CN[C@@H]1C[C@H]2O[C@@](C)([C@@H]1OC)n1c3ccc(O)cc3c3c4c(c5c6ccccc6n2c5c31)C(=O)NC4
IC50 (MDA-MB-231): 2 nM | IC50 [1]: 27.5 nM

CN[C@@H]1C[C@H]2O[C@@](C)([C@@H]1OC)n1c3ccccc3c3c4c(c5c6ccccc6n2c5c31)C(=O)NC4 [STAUROSPORINE]
IC50 (MDA-MB-231): 2.5 nM

Source: ChEMBL document CHEMBL4725491, “Staurosporine Analogs Via C-H Borylation” (ACS Med Chem Lett, 2020)
